{"source": "patent US20240124510A1", "about": "“Cyclic Glycoaminoacid Derivatives” (TFCHEM, priority 2021, published 2024)", "system": "normal human dermal fibroblasts (NHDF)", "assay": "Protection of NHDF under UVA irradiation, MTT reduction assay", "assay_type": "cell-based", "procedure": "The protective effects of compound 6 was assessed in normal human dermal fibroblasts (NHDF). The viability of UVA-irradiated NHDF using a standard MTT reduction assay was tested. Prior to these assays, a preliminary cytotoxicity assay was performed on NHDF, using a standard WST-8 reduction assay and morphological observations with a microscope, in order to determine the concentrations to be tested.\n• Cell type: NHDF, Bioalternatives reference PF2 used at the 8th passage • Culture conditions: 37° C., 5% CO2 • Culture medium: DMEM supplemented with L-glutamine 2 mM, Penicillin 50 U/ml • Streptomycin 50 μg/ml, Fetal calf serum (FCS) 10% • Irradiation medium: EBSS supplemented with CaCl2 0.2 g/l, MgSO4 0.2 g/l • Test compound: the compound 6 (MM=356.3 g/mol) was diluted in culture medium at final concentration of 1.25 and 2.5 mg/ml\nFibroblasts were seeded in 96-well plates and cultured in culture medium for 24 hours. The medium was then replaced by culture medium containing or not (irradiated control) the test compounds and the cells were pre-incubated for 24 hours. After pre-incubation, the medium was removed and replaced by irradiation medium and the cells were irradiated with 35 J/cm^2. The lamp used was a SOL500 Sun Simulator equipped with an H1 filter (Dr. Hönle, AG). After irradiation, the medium was removed and replaced by assay medium containing or not (irradiated control) the test compounds and the cells were incubated for 24 hours. A non-irradiated control condition was performed in parallel. All experimental conditions were performed in n=5, except for the control conditions in n=12.\nAt the end of incubation, the cells were incubated with MTT (tetrazolium salt) reduced in blue formazan crystals by succinate dehydrogenase (mitochondrial enzyme). This transformation is proportional to the enzyme activity. After cell dissociation and formazan crystal solubilization using DMSO, the optical density (OD) of the extracts at 540 nm, proportional to the number of living cells and their metabolic activity, was recorded with a microplate reader (VERSAmax, Molecular Devices).\nRaw data were analyzed using Microsoft Excel© software. The inter-group comparisons were performed by an unpaired Student's t-test.\nThe standard error of the mean (sem) is a measure of how far the sample mean is likely to be from the true population mean. The sem is calculated as the standard deviation (sd) divided by the square root of sample size (n). Standard error of the mean: sem=sd/√n Percentage of viability: viability (%)=(OD sample/OD control)×100\nThe cell viability (OD 540 nm) from irradiated culture added with tested compound was compared with irradiated control culture and the percentage of viability was calculated.", "note": "Like-named read-outs stand apart in the source and are kept apart here.", "data": [{"smiles": "N[C@H]1CCCN(CC(F)(F)[C@]2(O)O[C@H](CO)[C@H](O)[C@H](O)[C@H]2O)C1=O", "note": "[Compound 6]", "values": [{"measurement": "Mean OD (540 nm)", "setting": "1.25 mg/ml, UVA 35 J/cm^2, MTT", "result": 0.13}, {"measurement": "Mean OD (540 nm)", "setting": "2.5 mg/ml, UVA 35 J/cm^2, MTT", "result": 0.15}, {"measurement": "viability at 1250 µg/mL", "setting": "Homo sapiens, light or radiation study, 1.25 mg/ml, UVA 35 J/cm^2, MTT, read-out: % Irradiated control (viability)", "result": 116, "unit": "%"}, {"measurement": "viability at 2500 µg/mL", "setting": "Homo sapiens, light or radiation study, 2.5 mg/ml, UVA 35 J/cm^2, MTT, read-out: % Irradiated control (viability)", "result": 130, "unit": "%"}, {"measurement": "viability at 2500 µg/mL", "setting": "Homo sapiens, light or radiation study, UVA 35 J/cm2, 2.5 mg/ml, read-out: Cell viability, % of the irradiated control", "result": 130, "unit": "%"}]}]}
